# According to patent US11213527B2, “Inhibitory effect of low molecular weight compound on cancer and fibrosis” (NATIONAL UNIVERSITY CORPORATION TOTTORI UNIVERSITY, priority 2014, dated 2022):
# Legend:
# [1] = system: HuH7 cells (a liver cancer cell line); experiment: Inhibitory effect on cancer cells (WST assay); format: cell-based; settings: 0-50 μM; 4 days (concentration-dependent) or 0, 1, 2, 4 days (time-dependent); DMSO control
# Method: HuH7 cells (a liver cancer cell line) were cultured in a DMEM on a 10-cm cell culture dish (TPP Techno Plastic Products AG, Trasadingen, Switzerland) at 5% CO2, 37° C., and a humidity of 100%. After the cells were grown to 70 to 90% confluency, 200 μL of a Trypsin/EDTA solution was added thereto to detach the cells. The cells were centrifuged at 1000 rpm for 5 min at room temperature for recovery. Then, the cells in one dish were divided into four dishes and subcultured.
# When a concentration-dependent anti-tumor effect was examined, HuH7 cells at 70 to 90% confluency were collected, and 1×10^4 cells were seeded in each well of a 96-well plate (FALCON). When a time-dependent anti-tumor effect was examined, 5×10^3 cells were seeded. Twenty-four hours after the seeding, the cells were treated with IC-2, PN3-13, or HC-1, and further incubated at 37° C. DMSO was used as a control.
# The concentration of each low-molecular-weight compound was provided below. […] After that, absorbance (at a measurement wavelength of 450 nm/a control wavelength of 600 nm) was measured by a 96-well microplate reader (TECAN, Zurich, Switzerland). The absorbance of cells was calculated by subtracting the absorbance of reagent blank from the measured result, and was then converted to the viable cell count. Also, the IC50 of each low-molecular-weight compound was determined by using an equation: […]
# [2] = system: colon cancer cells (DLD-1, HCT 116, colo 205); experiment: Anti-tumor effect on colon cancer cells (TetraColor ONE); format: cell-based; settings: 48 hours
# Method: Colon cancer cells (DLD-1, HCT 116, colo 205) were cultured in a DMEM on a 10-cm cell culture dish (TPP Techno Plastic Products AG, Trasadingen, Switzerland) at 5% CO2, 37° C., and a humidity of 100%. The cells at 70-90% confluency were split and washed with PBS (−). Next, 300 μL of Trypsin/EDTA was added to 2 mL of PBS (−) and the cells were incubated with this solution at 37° C. for 5 min to detach the cells. Then, 5 mL of DMEM was used to recover the cells. The recovered cells were centrifuged at 1000 rpm for 3 min to remove a supernatant. Then the cells were suspended in DMEM at 1:4 and subcultured.
# First, 5×10^5 colon cancer cells (DLD-1, HCT 116, or colo 205) were seeded on a 96-well plate (TPP). Forty-eight hours after the low-molecular-weight compound treatment, 100 μL of 10% TetraColor ONE (SEIKAGAKU CORPORATION, Tokyo, Japan) was added and the mixture was then incubated at 37° C. After that, absorbance (at a measurement wavelength of 450 nm/a control wavelength of 600 nm) was measured by using a 96-well microplate reader (TECAN, Zurich, Switzerland).
# [3] = system: Wnt/β-catenin signal; experiment: Dual-luciferase reporter assay in colon cancer cells; format: cell-based; settings: DLD-1, HCT 116, colo 205; 48 hours
# Method: First, 3.34×10^4 colon cancer cells (DLD-1, HCT 116, or colo 205) were seeded on each well of a 24-well plate. After 24 hours, transfection was carried out by using 1 μL of lipofectamine 2000 (Invitrogen, Life Technologies Corp., Carlsbad, Calif.), 50 ng of pTCF4-CMVpro-FLuc, and 2.5 ng of pCMVpro-Rluc. After 48 hours from the low-molecular-weight compound treatment, 100 μL of 20% Passive Lysis Buffer (PROMEGA, Wisconsin, USA) was added to each well of a 24-well plate. The plate was shaken at ordinary temperature for 15 min and was then allowed to stand overnight at −30° C. On the following day, a Dual-Luciferase (a registered trademark) Reporter Assay System (PROMEGA) was used, and luciferase activity was then measured by using a MiniLumat LB 9506 (Berthold Technologies, Bad Wildbad, German).
# [4] = system: Wnt/β-catenin signal; experiment: Luciferase assay in liver stellate cells (LX-2); format: cell-based, human
# Method: A human liver stellate cell line (LX-2 cells) was maintained and cultured in a DMEM containing 10% FBS. The cells used for experiments were suspended in a DMEM containing 1% FBS and plated. The cell density was at about 2.0×10^5 cell/cm^2.
# A luciferase assay was used to investigate an inhibitory effect of each low-molecular-weight compound on a Wnt/β-catenin signal. The luciferase assay was conducted under conditions indicated in FIG. 40 and the following sections 9.3.1 to 9.3.2. FIG. 40 illustrates a protocol when the cells were treated with a low-molecular-weight compound+TGFβ. Substantially the same experiment was carried out when the cells were treated with a low-molecular-weight compound alone or a low-molecular-weight compound+Wnt3a. Note that TGFβ or Wnt3a was added so as to increase the intensity of a Wnt/β-catenin signal.
# First, 5×Passive Lysis Buffer was diluted 5-fold with MilliQ water. The lysis buffer was added at 100 μl/well and the plate was shaken for 20 min. The lysate was frozen at −30° C. overnight.
# The sample frozen a day before, LARII, a Stop&Glo buffer, and a Stop&Glo substrate (materials other than the sample were shaded) were incubated at room temperature for about 1 h. A Stop&Glo solution (49 μl of the Stop&Glo buffer and 1 μl of the Stop&Glo substrate) was prepared for the number of the samples+1. Next, 50 μl of the LARII was dispensed into a 3.5-ml tube. Then, 10 μl of the sample was added and the tube was set in a measurement instrument. After completion of the first assay, 50 μl of the Stop&Glo solution was added and the tube was again set in the measurement instrument for another assay.
smiles,measurement,setting,value
O=C1[C@H](Cc2ccccc2)N2C(=O)CCN(C(=O)NCc3ccccc3)[C@H]2CN1Cc1cccc2ccccc12 [IC-2],proliferation of HuH7 cells (cell viability),[1],significantly inhibited proliferation
same,inhibitory effect on proliferation of the colon cancer cells,[2],exerted an inhibitory effect on proliferation
same,inhibitory effect on a Wnt/β-catenin signal in the colon cancer cells,[3],exerted an inhibitory effect
same,inhibition of a Wnt/β-catenin signal in the LX-2 cells,"[4]; compound alone, 24 hours",resulted in inhibition
same,inhibition of a Wnt/β-catenin signal in the LX-2 cells,"[4]; compound alone, 48 hours",resulted in inhibition
same,inhibition of a Wnt/β-catenin signal in the LX-2 cells,"[4]; compound+TGFβ, 24 hours",resulted in inhibition
same,inhibition of a Wnt/β-catenin signal in the LX-2 cells,"[4]; compound+TGFβ, 48 hours",resulted in inhibition
same,inhibition of a Wnt/β-catenin signal in the LX-2 cells,"[4]; compound+Wnt3a, 24 hours",resulted in inhibition
